Data: patent publication US6894075B2, “4′-demethyl-4′-O-substituted-1-deoxypodophyllotoxin derivative and geometric isomer thereof, process for the preparation thereof and anti-cancer composition comprising the same” (priority 2000, dated 2005)
pEC50: −log10 of the molar value. Like-named read-outs stand apart in the source and are kept apart here.

Assays:
A549 cell = experiment: Cytotoxicity test (SRB method) for A549 cells; format: cell-based, human; settings: for pEC50 / ED50(mg/mL) for A549: A549, SRB; for pEC50: Table 2, unit printed in the cell, read-out: ED50 for A549, cells marked; for ED50(mg/mL) for A549 / EC50: 48 hours incubation; for ED50(mg/mL) for A549: Table 2; for EC50: A549 human lung cancer cell, SRB, read-out: ED50(nM) for A549; for cytotoxicity compared with DPT: A549, in words
Excerpt: (§1) Human lung carcinomas A549 and […] were used for determining cytotoxicity of the compounds of the present invention according to the Sulfrhodamine-B (SRB) method which was developed by NCI in 1989 in order to determine in vitro anticancer activity of drugs.
(§2) Cells to be used in the experiment were separated from a surface using 0.5% Trypsin-EDTA solution and suspended in a density of 5×10^4 cell/ml therein. The cell suspension was introduced into a 96-well plate in an amount of 180/well and incubated for 24 hours in a 5% CO2 incubator of 37° C. Samples were dissolved in dimethylsulfoxide and then diluted by water distilled in advance for three times just before the experiment. Forty-one (41) samples were prepared into 4 types of final concentrations, i.e., 0.1, 0.03, 0.01 and 0.003 mg per ml of the medium. The diluted sample solutions were added to the 96-well plate in the amount of 20 μl/well and incubated for 48 hours in a CO2 incubator of 37° C. At the time of adding the samples, Tz (Time zero) plate was taken. The medium was removed from the Tz plate and each of the plates after incubation were completed. Ten (10)% […] (TCA) was added in the amount of […], and allowed to stand for 1 hour at 4° C. to fix the cells on the bottom surface of the plate. After the cells were fixed, the plate was washed five to six times with water to completely remove the remaining TCA solution and then dried at room temperature to completely remove the moisture. To the fully dried plate was introduced a dye solution in the amount of […] in which 0.4% SRB was dissolved in 1% acetic acid solution. […] After the dyeing process, the plate was dried again at room temperature. 100 ml of 10 mM Tris solution was added thereto in order to dissolve the dye, and then O.D. (optical density) was determined by microplate reader at 520 nm.
(§3) ED50 values for cancer cells were calculated as follows. The amount of SRB protein was analyzed at the time when incubation started by the addition of the sample. This amount was named time zero (Tz). The O.D. value obtained from a group which was not treated by the sample was named Control group (C) and the O.D. value obtained from a group which was treated by the sample was named Test group (T).
(§4) The degree of cytotoxicity of the compounds was calculated from Tz, C and T values according to the following equation.
(§5) That is, in the case of Tz≧T, the degree was calculated by
(§6) (T−Tz)/(C−Tz)×100(%), and
(§7) • in the case of Tz<T, the degree was calculated by […].
(§8) From the values thus obtained, ED50 value which is defined as the concentration at which growth of the cancer cell is inhibited by 50% was calculated using the regression function of Excel program.

SK-MEL-2 cell = experiment: Cytotoxicity test (SRB method) for SK-MEL-2 cells; format: cell-based, human; settings: SK-MEL-2, SRB, 48 hours incubation
Excerpt: as §1, §2, §3, §4, §5, §6, §7, §8

Row | SMILES | ED50(mg/mL) for A549 (A549 cell) [mg/mL] | ED50(mg/mL) for SK-MEL-2 (SK-MEL-2 cell) [mg/mL] | EC50 (A549 cell) [nM] | other results
1 | COc1cc(C=CC(=O)Oc2c(OC)cc(C3c4cc5c(cc4CC4COC(=O)C43)OCO5)cc2OC)cc(OC)c1OC (stereo not shown) [Compound 1c-1, 4′-demethyl-4′-O-(3,4,5-trimethoxyphenylcinnamoyl)-1-deoxypodophyllotoxin] |  |  |  | pEC50 (A549 cell): 6.97
2 | CCCCCCCCCCCC(=O)Oc1c(OC)cc(C2c3cc4c(cc3CC3COC(=O)C32)OCO4)cc1OC (stereo not shown) [Compound 1c-11, 4′-demethyl-4′-O-dodecanoyl-1-deoxypodophyllotoxin] | 0.030 | 0.025 |  | 
3 | CCCCC/C=C\C/C=C\C/C=C\CCCCC(=O)Oc1c(OC)cc(C2c3cc4c(cc3CC3COC(=O)C32)OCO4)cc1OC (stereo not drawn) [Compound 1c-23, 4′-demethyl-4′-O-(cis-6′,9′,12′-octadecatrienoyl)-1-deoxypodophyllotoxin] | 0.085 | 0.041 |  | 
4 | C=CCNC(=O)Oc1c(OC)cc(C2c3cc4c(cc3CC3COC(=O)C32)OCO4)cc1OC (stereo not shown) [Compound 1b-7, 4′-demethyl-4′-O-allylcarbamoyl-1-deoxypodophyllotoxin] |  |  | 90.5 | 
5 | COc1cc(C2c3cc4c(cc3CC3COC(=O)C32)OCO4)cc(OC)c1OC(=O)Nc1ccc(C)cc1 (stereo not shown) [Compound 1b-11, 4′-demethyl-4′-O-(4-methylphenylcarbamoyl)-1-deoxypodophyllotoxin] |  |  | 99.3 | 
6 | CC/C=C\C/C=C\C/C=C\CCCCCCCC(=O)Oc1c(OC)cc(C2c3cc4c(cc3CC3COC(=O)C32)OCO4)cc1OC (stereo not drawn) [Compound 1c-22, 4′-demethyl-4′-O-(cis-9′,12′,15′-octadecatrienoyl)-1-deoxypodophyllotoxin] | 0.084 | 0.048 |  | 
7 | CCCCC/C=C/C/C=C/CCCCCCCC(=O)Oc1c(OC)cc(C2c3cc4c(cc3CC3COC(=O)C32)OCO4)cc1OC (stereo not drawn) [Compound 1c-21, 4′-demethyl-4′-O-(trans-9′,12′-octadecadienoyl)-1-deoxypodophyllo-toxin] | 0.259 | 0.110 |  | 
8 | COc1cc(C2c3cc4c(cc3CC3COC(=O)C32)OCO4)cc(OC)c1OC(=O)CCCCC(=O)O (stereo not shown) [Compound 1c-33, 4′-demethyl-4′-O-(5′-carboxy-pentanoyl)-1-deoxypodophyllotoxin] | 0.258 | 0.062 |  | 
9 | CCCCCCCC/C=C\CCCCCCCCCCCC(=O)Oc1c(OC)cc(C2c3cc4c(cc3CC3COC(=O)C32)OCO4)cc1OC (stereo not drawn) [Compound 1c-30, 4′-demethyl-4′-O-(cis-13′-docosenoyl)-1-deoxypodophyllotoxin] | 2.710 | 0.561 |  | 
10 | COc1cc(C2c3cc4c(cc3CC3COC(=O)C32)OCO4)cc(OC)c1OC(=O)CC(C)C (stereo not shown) [Compound 1c-6, 4′-demethyl-4′-O-(3′-methylbutanoyl)-1-deoxypodophyllotoxin] | 0.006 | 0.089 |  | 
11 | CCCCCCCCCCCCCCCC(=O)Oc1c(OC)cc(C2c3cc4c(cc3CC3COC(=O)C32)OCO4)cc1OC (stereo not shown) [Compound 1c-13, 4′-demethyl-4′-O-hexadecanoyl-1-deoxypodophyllotoxin] | 0.268 | 0.290 |  | 
12 | COc1cc(C2c3cc4c(cc3CC3COC(=O)C32)OCO4)cc(OC)c1OC(=O)CCCCCCC(=O)O (stereo not shown) [Compound 1c-34, 4′-demethyl-4′-O-(7′-carboxy-heptanoyl)-1-deoxypodophyllotoxin] | 0.175 | 0.066 |  | 
13 | COc1cc(C2c3cc4c(cc3CC3COC(=O)C32)OCO4)cc(OC)c1OC(=O)NC(=O)CCl (stereo not shown) [Compound 1b-6, 4′-demethyl-4′-O-chloroacetylcarbamoyl-1-deoxypodophyllotoxin] |  |  | 80.3 | 
14 | CCCCCCCCCCCCCCCCCCCC(=O)Oc1c(OC)cc(C2c3cc4c(cc3CC3COC(=O)C32)OCO4)cc1OC (stereo not shown) [Compound 1c-24, 4′-demethyl-4′-O-eicosanoyl-1-deoxypodophyllotoxin] | >5 | >5 |  | 
15 | COc1cc(C2c3cc4c(cc3CC3COC(=O)C32)OCO4)cc(OC)c1OC(=O)NCc1ccccc1 (stereo not shown) [Compound 1b-14, 4′-demethyl-4′-O-benzylcarbamoyl-1-deoxypodophyllotoxin] |  |  | 72 | cytotoxicity compared with DPT (A549 cell): stronger cytotoxicity than DPT
16 | COc1cc(C2c3cc4c(cc3CC3COC(=O)C32)OCO4)cc(OC)c1OC(=O)Nc1ccc(SC)cc1 (stereo not shown) [Compound 1b-12, 4′-demethyl-4′-O-(4-methylthiophenylcarbamoyl)-1-deoxypodophyllotoxin] |  |  | 106 | 

Row | SMILES | ED50(mg/mL) for A549 (A549 cell) [mg/mL] | ED50(mg/mL) for SK-MEL-2 (SK-MEL-2 cell) [mg/mL] | EC50 (A549 cell) [nM] | other results
17 | COc1cc(C2c3cc4c(cc3CC3COC(=O)C32)OCO4)cc(OC)c1OC(=O)NC(=O)c1ccccc1 (stereo not shown) [Compound 1b-15, 4′-demethyl-4′-O-benzoylcarbamoyl-1-deoxypodophyllotoxin] |  |  | 77 | 
18 | COc1ccc(NC(=O)Oc2c(OC)cc(C3c4cc5c(cc4CC4COC(=O)C43)OCO5)cc2OC)cc1 (stereo not shown) [Compound 1b-10, 4′-demethyl-4′-O-(4-methoxyphenylcarbamoyl)-1-deoxypodophyllotoxin] |  |  | 95.6 | 
19 | COc1cc(C2c3cc4c(cc3CC3COC(=O)C32)OCO4)cc(OC)c1OC(=O)Cc1ccc(N)cc1 (stereo not shown) [Compound 1a-16, 4′-demethyl-4′-O-(4-aminophenylacetyl)-1-deoxypodophyllotoxin] |  |  | 114 | 
20 | COc1cc(C2c3cc4c(cc3CC3COC(=O)C32)OCO4)cc(OC)c1OC(=O)Nc1ccccc1 (stereo not shown) [Compound 1b-8, 4′-demethyl-4′-O-phenylcarbamoyl-1-deoxypodophyllotoxin] |  |  | 177 | 
21 | CCNC(=O)Oc1c(OC)cc(C2c3cc4c(cc3CC3COC(=O)C32)OCO4)cc1OC (stereo not shown) [Compound 1b-1, 4′-demethyl-4′-O-ethylcarbamoyl-1-deoxypodophyllotoxin] |  |  | 132 | 
22 | COc1cc(C2c3cc4c(cc3CC3COC(=O)C32)OCO4)cc(OC)c1OC(=O)C(N)Cc1ccccc1 (stereo not shown) [Compound 1a-7, 4′-demethyl-4′-O-phenylalanoyl-1-deoxypodophyllotoxin] |  |  | 86.6 | 
23 | COc1cc(C2c3cc4c(cc3CC3COC(=O)C32)OCO4)cc(OC)c1OC(=O)C(N)C(C)C (stereo not shown) [Compound 1a-3, 4′-demethyl-4′-O-valinoyl-1-deoxypodophyllotoxin] |  |  | 88.2 | 
24 | COc1cc(C2c3cc4c(cc3CC3COC(=O)C32)OCO4)cc(OC)c1OC(=O)Cc1ccc(N(C)C)cc1 (stereo not shown) [Compound 1c-2, 4′-demethyl-4′-O-(4-dimethylaminophenylacetyl)-1-deoxypodophyllotoxin] |  |  |  | pEC50 (A549 cell): 6.97
25 | COc1cc(C2c3cc4c(cc3CC3COC(=O)C32)OCO4)cc(OC)c1OC(=O)[C@@H](N)Cc1ccc(O)cc1 (stereo partly shown) [Compound 1a-9, 4′-demethyl-4′-O-tyrosinoyl-1-deoxypodophyllotoxin] |  |  | 104 | 
26 | COc1cc(C2c3cc4c(cc3CC3COC(=O)C32)OCO4)cc(OC)c1OC(=O)C(N)CO (stereo not shown) [Compound 1a-5, 4′-demethyl-4′-O-serinoyl-1-deoxypodophyllotoxin] |  |  | 55 | cytotoxicity compared with DPT (A549 cell): stronger cytotoxicity than DPT
27 | COc1cc(C2c3cc4c(cc3CC3COC(=O)C32)OCO4)cc(OC)c1OC(=O)Nc1ccc(F)cc1 (stereo not shown) [Compound 1b-9, 4′-demethyl-4′-O-(4-fluorophenylcarbamoyl)-1-deoxypodophyllo-toxin] |  |  | 86.3 | 
28 | COc1ccccc1NC(=O)Oc1c(OC)cc(C2c3cc4c(cc3CC3COC(=O)C32)OCO4)cc1OC (stereo not shown) [Compound 1b-13, 4′-demethyl-4′-O-(2-methoxyphenylcarbamoyl)-1-deoxypodophyllotoxin] |  |  | 66.2 | cytotoxicity compared with DPT (A549 cell): stronger cytotoxicity than DPT
29 | COc1cc(C2c3cc4c(cc3CC3COC(=O)C32)OCO4)cc(OC)c1OC(=O)[C@H](C)N (stereo partly shown) [Compound 1a-1, 4′-demethyl-4′-O-alanoyl-1-deoxypodophyllotoxin] |  |  | 21.9 | cytotoxicity compared with DPT (A549 cell): stronger cytotoxicity than DPT
30 | COc1cc(C2c3cc4c(cc3CC3COC(=O)C32)OCO4)cc(OC)c1OC(=O)NS(=O)(=O)c1ccccc1 (stereo not shown) [Compound 1b-16, 4′-demethyl-4′-O-benzenesulfonylcarbamoyl-1-deoxypodophyllo-toxin] |  |  | 50.6 | cytotoxicity compared with DPT (A549 cell): stronger cytotoxicity than DPT
31 | COc1cc(C2c3cc4c(cc3CC3COC(=O)C32)OCO4)cc(OC)c1OC(=O)CN (stereo not shown) [Compound 1a-4, 4′-demethyl-4′-O-glycinoyl-1-deoxypodophyllotoxin] |  |  | 102 | 
